Reference: patent publication US20220381657A1, “METHOD FOR PREPARING BIOLOGICAL MATERIAL HAVING EXCELLENT LIGHT-TRANSMITTING PROPERTY” (RIKEN, priority 2016, published 2022)
Like-named read-outs stand apart in the source and are kept apart here.

How the values were obtained:
[1] = system: fixed brain tissue suspension; assay: 1st delipidation assay: solubilization of fixed brain tissue suspension, turbidity at 600 nm; design: species or system mice
Procedure: Specifically, brains taken out of mice were sheared with a utility knife and then were disrupted by ultrasonication. To each of the resultant suspensions, an equal volume of 8% PFA solution was added to perform fixation at 4° C. for 1 hour. The resultant mixture was centrifuged to remove the supernatant, and the fixed brain tissue was washed with PBS for 3 times. PBS was added so as to obtain 2 mL of a fixed brain tissue suspension per brain. The fixed brain tissue suspension was diluted by 3.5 folds. To 20 μL of the resultant suspension, 130 μL of each 10 wt % chemical was added and was shaken at 37° C. overnight. Thus obtained mixed solutions were subjected to absorbance (turbidity) measurement at 600 nm. It is expected that a chemical solution which reduces the turbidity of a fixed brain suspension allows reducing light scattering by solubilizing lipids, which act as a scattering factor, in the brain tissue.

bovine coagulated blood = assay: Decoloring screening: heme eluted from bovine coagulated blood (OD420-OD700); conditions: decolorization; for 700 nm calibrated 420 nm Average: OD420 calibrated by OD700; for integrated value 500-700 nm Average: integrated absorbance 500-700 nm
Procedure: A high-throughput screening system for evaluating the decoloring ability of various compounds was constructed. The screening system involved adding an aqueous solution of each compound to bovine coagulated blood and then measuring the absorbance of heme collected in the supernatant.
Specifically, to bovine blood, an equal amount of 8% PFA solution was added, and reacted at 4° C. overnight. The mixed liquid was centrifuged at 1500×g for 5 minutes, and the supernatant containing PFA was discarded. Then, the same amount of PBS as the original volume of blood was added to prepare a coagulated blood sample. To 150 μL of 10 wt % aqueous solution of each compound, 50 μL of the coagulated blood sample was added, and reacted at 37° C. overnight. The reaction solution was centrifuged at 1500×g for 5 minutes, and then 100 μL of the supernatant was added to a plate so as to be subjected to absorbance measurement. A sample which is suspended in water instead of being dissolved in the water has a weak decoloring effect, but none the less has a high absorbance value. […]

[2] = for 400 nm: OD at 400 nm of the chemical; for OD400: Table 1
[3] = Table 1, 10 wt % chemical, fixed mouse brain suspension, 37° C. overnight, PBS = 1.000

Compound | 400 nm [2] | OD400 [2] | pH (Table 1) | pH ([…]) | 1st delipidation assay Relative OD600 [1, 3] | 700 nm calibrated 420 nm Average (bovine coagulated blood) | integrated value 500-700 nm Average (bovine coagulated blood) | Fluorescence quench Average (Serius; relative fluorescence) | further results
NCC1CCC(CN)CC1 (centres unmarked) [#0071, 1,4-Bis(aminomethyl) cyclohexane] | 0.054 | 0.054 | 13.3 | 13.3 | 0.318 | 3.25 | 1.90 | 0.56 | pH (Table 4): 13.27
CCCCNCCN [#0422, N-Butylethylenediamine] |  | 0.05 | 12.7 |  | 0.307 |  |  |  | 
C[C@H](CCC(=O)O)[C@H]1CC[C@H]2[C@@H]3[C@H](O)C[C@@H]4C[C@H](O)CC[C@]4(C)[C@H]3C[C@H](O)[C@]12C [#0566, Sodium Cholate] |  |  |  |  |  |  |  |  | 1st delipidation assay Relative OD600 [1]: 0.254
CCN(CC)CCN [#0779, N,N-Diethyl-ethylenediamine] | 0.051 |  |  | 13.6 |  | 1.39 | 0.81 | 0.70 | 
NC(=O)c1cccnc1 [#0855, nicotinamide] | 0.052 |  |  | 10.4 |  | 2.63 | 2.45 | 0.75 | 
CCCCCCCCCCCC[N+](C)(C)C.[Cl-] [#1021, Dodecyltrimethyl- ammonium chloride] |  |  |  |  | 0.194 | 1.96 | 1.70 |  | Fluorescence quench Average (Serius): 1.11
CCCCCCCCCCCCOS(=O)(=O)[O-].[Na+] [#1035, Sodium dodecyl sulfate] | 0.048 | 0.048 | 6.3 | 6.3 |  | 1.28 | 1.32 | 1.15 | 
C1CCNCC1 [#1097, Piperidine] |  |  |  |  | 0.166 |  |  |  | 
N.O=C(O)C(F)(F)C(F)(F)C(F)(F)C(F)(F)C(F)(F)C(F)(F)C(F)(F)F [#1162, Ammonium pentadecafluorooctanoate] |  |  |  |  | 0.318 |  |  |  | 
c1cnc(N2CCNCC2)nc1 [#1167, 1-(2-Pyrimidyl) piperazine] | 0.084 |  |  | 12.5 |  | 1.39 | 1.09 | 0.01 | 
CC(CN)CCCN (centres unmarked) [#1267, 2-Methyl-1,5-diaminopentane] | 0.08 | 0.08 | 12.9 | 12.9 |  | 1.48 | 1.09 | 0.51 | 
CN1CCCC1 [#1295, 1-Methylpyrrolidine] |  | 0.085 | 10.5 |  | 0.325 |  |  |  | 
CCCCCCCCCCCCOS(=O)(=O)[O-].[Li+] [#1310, Lithium dodecyl sulfate] |  |  |  |  | 0.155 |  |  |  | 
CN1C2CCC1CC(O)C2 (centres unmarked) [#1462, Tropine] |  |  |  |  | 0.292 |  |  |  | 
Dodecene-1 LAS [#0672] |  |  |  |  |  | 1.45 | 1.41 |  | 1st delipidation assay Relative OD600 [1]: 0.152; Fluorescence quench Average (Serius): 1.08
Isobutylamine [#1043] |  |  |  |  | 0.251 |  |  |  | 
Isopropylamine [#1006] |  |  |  |  | 0.318 |  |  |  | 
Nonidet P-40 [#1511] |  |  |  |  |  |  |  |  | 1st delipidation assay Relative OD600 [1]: 0.193
Polyethylene glycol mono-4-octylphenyl ether [#1103] |  |  |  |  |  |  |  |  | 1st delipidation assay Relative OD600 [1]: 0.184
Triton ™ X-100 [reference compound] |  |  |  |  | 0.240 |  |  |  | 
Tween ® 80 [#1460] |  | 0.065 | 5.7 |  | 0.095 |  |  |  | 

Further lines, with some results ahead:

400 nm [2] | OD400 [2] | pH (Table 1) | pH ([…]) | Compound | 1st delipidation assay Relative OD600 [1, 3] | 700 nm calibrated 420 nm Average (bovine coagulated blood) | integrated value 500-700 nm Average (bovine coagulated blood) | Fluorescence quench Average (Serius; relative fluorescence) | further results
0.079 | 0.079 | 13.0 | 13.0 | NCC1CCCC(CN)C1 (centres unmarked) [#0070, 1,3-Bis(aminomethyl) cyclohexane] | 0.286 | 3.15 | 1.91 | 0.62 | 
 | 0.052 | 12.7 |  | CC(C)(C)N(CCO)CCO [#0390, N-tert- Butyldiethanolamine] | 0.318 |  |  |  | 
0.054 | 0.054 | 8.3 | 8.3 | C[C@H](CCC(=O)[O-])[C@H]1CC[C@H]2[C@@H]3CC[C@@H]4C[C@H](O)CC[C@]4(C)[C@H]3C[C@H](O)[C@]12C.[Na+] [#0562, Sodium deoxycholate] | 0.170 | 1.18 | 0.98 | 1.08 | 
 | 0.046 | 5.9 |  | CCCCCCCCCCS(=O)(=O)[O-].[Na+] [#0625, Sodium 1-decanesulfonate] | 0.325 |  |  |  | 
 | 0.047 | 7.0 |  | CCCCCCCCCC(=O)N(C)CC(=O)[O-].[Na+] [#0703, N-Decanoylsarcosine sodium salt] | 0.223 |  |  |  | 
0.05 |  |  | 14.0 | NCCCCN [#0783] |  | 2.21 | 1.42 | 0.60 | 
 | 0.047 | 6.8 |  | CCCCCCCCCS(=O)(=O)[O-].[Na+] [#0870, Sodium 1-nonanesulfonate] | 0.247 |  |  |  | 
 | 0.055 | 9.6 |  | CC(C)CCN [#1038, Isoamylamine] | 0.247 |  |  |  | 
0.054 |  |  | 12.8 | NCC(O)CN [#1062] |  | 1.13 | 0.80 | 0.67 | 
 | 0.05 | 9.5 |  | OCC(O)c1ccccc1 (centres unmarked) [#1074, 1-Phenylethane-1,2-diol] | 0.336 |  |  |  | 
0.051 |  |  | 8.6 | c1cnccn1 [#1086] |  | 1.41 | 1.39 | 0.67 | 
0.057 |  |  | 13.2 | CC(O)CN(CCN(CC(C)O)CC(C)O)CCN(CC(C)O)CC(C)O (centres unmarked) [#1105, N,N,N′,N″,N″-Pentakis(2-hydroxypropyl) diethylene-triamine] |  | 1.20 | 1.05 | 0.74 | 
0.05 |  |  | 14.1 | OCCCC1CCN(CCO)CC1 [#1226, 1-(2-Hydroxyethyl)-4-(3-hydroxypropyl) piperidine] |  | 2.20 | 2.29 | 0.76 | 
0.055 |  |  | 2.9 | OCCCCCBr [#1367] |  | 1.48 | 0.06 | −0.01 | 
 | 0.056 | 5.9 |  | CCCCCCCCCCCS(=O)(=O)[O-].[Na+] [#1419, Sodium 1-undecanesulfonate] | 0.124 |  |  |  | 
0.05 |  |  | 6.1 | COc1ccc(CO)cc1OC [#1422, Veratryl alcohol] |  | 1.46 | 1.28 | 0.89 | 
0.054 | 0.054 | 7.9 | 7.9 | C[C@H](CCC(=O)[O-])[C@H]1CC[C@H]2[C@@H]3CC[C@@H]4C[C@H](O)CC[C@]4(C)[C@H]3C[C@H](O)[C@]12C.[Na+] [#1507, Sodium deoxycholate] |  | 1.27 | 1.03 | 1.03 | 
0.048 |  |  | 11.7 | OCCN(CCO)CCN(CCO)CCO [#1537, N,N,N′,N′-Tetrakis(2-hydroxyethyl) ethylenediamine] |  | 1.29 | 1.63 | 0.66 | 
 | 0.048 | 12.4 |  | CC(O)CN(CCN(CC(C)O)CC(C)O)CC(C)O (centres unmarked) [Quadrol ®, reference compound] | 0.569 |  |  |  | 
